The source of these data is ChEMBL document CHEMBL4052655, “Synthesis, spectroscopic characterization and biological evaluation of unsymmetrical aminosquarylium cyanine dyes” (Bioorg Med Chem, 2017).

The source made the active and inactive calls. The calls are words filed in the database; no cut-off is given here.

Data set [1] concerns HepG2. The data set is described as follows: Phototoxicity against human HepG2 cells pretreated for 24 hrs followed by 3.61 J irradiation for 14 mins measured after 24 hrs by Alamar blue assay. Type of data set: functional, cell-based. Conditions: HepG2, light or radiation study.
In data set [2] the test system is HepG2. The data set is described as follows: Phototoxicity against human HepG2 cells pretreated for 24 hrs followed by 1.81 J irradiation for 7 mins measured after 24 hrs by Alamar blue assay. Type of data set: functional, cell-based. As to conditions: HepG2, light or radiation study.
In data set [3] the test system is Caco-2. The data set is described as follows: Phototoxicity against human Caco2 cells pretreated for 24 hrs followed by 1.81 J irradiation for 7 mins measured after 24 hrs by Alamar blue assay. Type of data set: functional, cell-based. Conditions: Caco-2, light or radiation study.
Data set [4] concerns Caco-2. The data set is described as follows: Phototoxicity against human Caco2 cells assessed as reduction in cell viability at 1 uM pretreated for 24 hrs followed by 3.61 J irradiation for 14 mins measured after 24 hrs by Alamar blue assay. Type of data set: functional, cell-based.
The nature of data set [5]: Dark toxicity against human HepG2 cells pretreated for 24 hrs followed by 14 mins dark incubation measured after 24 hrs by Alamar blue assay. Type of data set: cell-based.
The subject of data set [6] is Caco-2. The data set is described as follows: Phototoxicity against human Caco2 cells assessed as cell viability at 5 uM pretreated for 24 hrs followed by 1.81 J irradiation for 7 mins measured after 24 hrs by Alamar blue assay (reference value: 60%). Conditions: Caco-2, light or radiation study, read-out: Activity. Type of data set: functional.
Data set [7] concerns Caco-2. The data set is described as follows: Phototoxicity against human Caco2 cells pretreated for 24 hrs followed by 3.61 J irradiation for 14 mins measured after 1 hr by Alamar blue assay. Type of data set: functional, cell-based. As to conditions: Caco-2, light or radiation study.
Data set [8] relates to HepG2. The data set can be described thus: Phototoxicity against human HepG2 cells pretreated for 24 hrs followed by 1.81 J irradiation for 7 mins measured after 1 hr by Alamar blue assay. Type of data set: functional, cell-based. Conditions: HepG2, light or radiation study.
Data set [9] in a line: Dark toxicity against human Caco2 cells pretreated for 24 hrs followed by 14 mins dark incubation measured after 24 hrs by Alamar blue assay. Type of data set: cell-based. Conditions: Caco-2 cells.
Data set [10] concerns HepG2. The data set is described as follows: Phototoxicity against human HepG2 cells assessed as reduction in cell viability at 1 uM pretreated for 24 hrs followed by 3.61 J irradiation for 14 mins measured after 24 hrs by Alamar blue assay. Type of data set: functional, cell-based.
Data set [11] has as its system Caco-2. The data set is described as follows: Phototoxicity against human Caco2 cells pretreated for 24 hrs followed by 3.61 J irradiation for 14 mins measured after 24 hrs by Alamar blue assay. Conditions: Caco-2, light or radiation study. Type of data set: functional, cell-based.
In data set [12] the test system is Caco-2. The data set is described as follows: Ratio of IC50 for human Caco2 cells pretreated for 24 hrs followed by 14 mins dark incubation to IC50 for human Caco2 cells pretreated for 24 hrs followed by 3.61 J irradiation for 14 mins.
Data set [13] relates to HepG2. The data set can be described thus: Phototoxicity against human HepG2 cells assessed as reduction in cell viability at 1 uM pretreated for 24 hrs followed by 3.61 J irradiation for 14 mins measured after 1 hr by Alamar blue assay. Type of data set: functional, cell-based.
Data set [14] is described as follows: Dark toxicity against human HepG2 cells pretreated for 24 hrs followed by 14 mins dark incubation measured after 1 hr by Alamar blue assay. Type of data set: cell-based.
A short description of data set [15]: Dark toxicity against human Caco2 cells pretreated for 24 hrs followed by 14 mins dark incubation measured after 1 hr by Alamar blue assay. Type of data set: cell-based. Conditions: Caco-2 cells.
Data set [16] is described as follows: Dark toxicity against human HepG2 cells assessed as cell viability at 5 to 10 uM pretreated for 24 hrs followed by 14 mins dark incubation measured after 1 to 24 hrs by Alamar blue assay relative to control. Type of data set: cell-based. Conditions: read-out: Activity.
Data set [17] can be described thus: Dark toxicity against human HepG2 cells assessed as cell viability at 1 uM pretreated for 24 hrs followed by 14 mins dark incubation after 48 hrs by Alamar blue assay relative to control. Type of data set: cell-based. As to conditions: read-out: Activity.
Data set [18] can be described thus: Dark toxicity against human Caco2 cells assessed as cell viability at 0.1 to 1 uM pretreated for 24 hrs followed by 14 mins dark incubation after 1 to 24 hrs by Alamar blue assay relative to control. Type of data set: cell-based. As to conditions: Caco-2 cells, read-out: Activity.
Data set [19] concerns HepG2. The data set is described as follows: Phototoxicity against human HepG2 cells pretreated for 24 hrs followed by 3.61 J irradiation for 14 mins measured after 1 hr by Alamar blue assay. Type of data set: functional, cell-based. As to conditions: HepG2, light or radiation study.
Data set [20] has as its system HepG2. The data set can be described thus: Phototoxicity against human HepG2 cells assessed as reduction in cell viability at 1 uM pretreated for 24 hrs followed by 1.81 J irradiation for 7 mins measured after 24 hrs by Alamar blue assay. Type of data set: functional, cell-based.
Data set [21] can be described thus: Dark toxicity against human Caco2 cells assessed as cell viability at 5 to 10 uM pretreated for 24 hrs followed by 14 mins dark incubation measured after 1 to 24 hrs by Alamar blue assay relative to control. Type of data set: cell-based. As to conditions: Caco-2 cells, read-out: Activity.
A short description of data set [22]: Induction of singlet oxygen production in chloroform.
Data set [23] relates to Caco-2. The data set is described as follows: Phototoxicity against human Caco2 cells assessed as cell viability at 5 uM pretreated for 24 hrs followed by 3.61 J irradiation for 14 mins measured after 24 hrs by Alamar blue assay (reference value: 60%). Type of data set: functional. As to conditions: Caco-2, light or radiation study, read-out: Activity.
Data set [24] has as its system Caco-2. The data set can be described thus: Phototoxicity against human Caco2 cells assessed as reduction in cell viability at 1 uM pretreated for 24 hrs followed by 1.81 J irradiation for 7 mins measured after 1 to 24 hrs by Alamar blue assay. Type of data set: functional, cell-based.
The subject of data set [25] is Caco-2. The data set can be described thus: Phototoxicity against human Caco2 cells pretreated for 24 hrs followed by 1.81 J irradiation for 7 mins measured after 1 hr by Alamar blue assay. Type of data set: functional, cell-based. As to conditions: Caco-2, light or radiation study.
Data set [26] in a line: Dark toxicity against human Caco2 cells assessed as cell viability at 1 uM pretreated for 24 hrs followed by 14 mins dark incubation after 1 to 24 hrs by Alamar blue assay relative to control. Type of data set: cell-based. Conditions: Caco-2 cells, read-out: Activity.
Data set [27] relates to HepG2. The data set is described as follows: Phototoxicity against human HepG2 cells assessed as reduction in cell viability at 1 uM pretreated for 24 hrs followed by 1.81 J irradiation for 7 mins measured after 1 hr by Alamar blue assay. Type of data set: functional, cell-based.
Data set [28] concerns Caco-2. The data set can be described thus: Phototoxicity against human Caco2 cells assessed as cell viability at 1 uM pretreated for 24 hrs followed by 3.61 J irradiation for 14 mins measured after 24 hrs by Alamar blue assay (reference value: 80%). Type of data set: functional. Conditions: Caco-2, light or radiation study, read-out: Activity.
For data set [29], the system named is HepG2. The data set can be described thus: Phototoxicity against human HepG2 cells assessed as reduction in cell viability up to 10 uM pretreated for 24 hrs followed by 1.81 J irradiation for 7 mins measured after 1 hr by Alamar blue assay. Type of data set: functional, cell-based.
For data set [30], the system named is HepG2. The data set can be described thus: Phototoxicity against human HepG2 cells assessed as cell viability at 5 uM pretreated for 24 hrs followed by 3.61 J irradiation for 14 mins measured after 24 hrs by Alamar blue assay relative to control. Type of data set: functional. As to conditions: HepG2, light or radiation study, read-out: Activity.
The test system of data set [31] is Caco-2. The data set is described as follows: Dark toxicity against human Caco2 cells assessed as reduction in cell viability at 1 uM pretreated for 24 hrs followed by 14 mins dark incubation measured after 1 to 24 hrs by Alamar blue assay. Type of data set: cell-based. Conditions: caco-2, 1 µM.
In data set [32] the test system is Caco-2. The data set can be described thus: Phototoxicity against human Caco2 cells at 5 to 10 uM pretreated for 24 hrs followed by 3.61 J irradiation for 14 mins measured after 24 hrs by Alamar blue assay. Type of data set: functional, cell-based.
Data set [33] has as its system Caco-2. The data set is described as follows: Dark toxicity against human Caco2 cells assessed as reduction in cell viability at 10 uM pretreated for 24 hrs followed by 14 mins dark incubation measured after 1 to 24 hrs by Alamar blue assay. Type of data set: cell-based. Conditions: caco-2, 10 µM.
Data set [34] relates to Caco-2. The data set can be described thus: Phototoxicity against human Caco2 cells at 5 to 10 uM pretreated for 24 hrs followed by 1.81 J irradiation for 7 mins measured after 24 hrs by Alamar blue assay. Type of data set: functional, cell-based.
The test system of data set [35] is HepG2. The data set is described as follows: Dark toxicity against human HepG2 cells assessed as reduction in cell viability at 1 uM pretreated for 24 hrs followed by 14 mins dark incubation measured after 1 to 24 hrs by Alamar blue assay. As to conditions: hepg2, 1 µM. Type of data set: cell-based.
Data set [36] is described as follows: Dark toxicity against human HepG2 cells assessed as cell viability at 10 uM pretreated for 24 hrs followed by 14 mins dark incubation measured after 1 to 24 hrs by Alamar blue assay relative to control. Conditions: read-out: Activity. Type of data set: cell-based.
The subject of data set [37] is HepG2. The data set can be described thus: Phototoxicity against human HepG2 cells assessed as reduction in cell viability at 5 uM pretreated for 24 hrs followed by 3.61 J irradiation for 14 mins measured after 24 hrs by Alamar blue assay. Type of data set: functional, cell-based.

Consider `CCCCCCN1/C(=C/C2=C(NC)C(=C\c3ccc4ccccc4[n+]3CCCCCC)/C2=O)Sc2ccccc21.[I-]`, for which the IC50 with HepG2 [1] stood at 830 nM; in the data set with HepG2 [2], 1020 nM; with Caco-2 [3], 1160 nM; with Caco-2 [7], 1460 nM; in the data set with HepG2 [8], 3.39 µM; with Caco-2 [11] it was 470 nM. Further, the IC50 in the data set on HepG2 [19] was 930 nM; in the data set with Caco-2 [25], 3.9 µM. The outcome (in the data set with Caco-2 [4]; in the data set on HepG2 [10]; in the data set with HepG2 [13]; in the data set with HepG2 [20]; in data set [22]; with Caco-2 [24]) was Active. The figures for the concentration for half-maximal inhibition (IC50) at 24 h in data set [5] and in [9] were 1360 nM and 1270 nM, respectively. The viability at 5 µM in the data set on Caco-2 [6] and with Caco-2 [23] was 0% throughout. Besides, the “Ratio IC50” value in the data set with Caco-2 [12] stood at 3.6. In addition, the IC50 at 1 h in data set [14] is 2930 nM; in [15] it was 5.11 µM. Besides, the viability at 24 h, 10 µM in data set [16] worked out at 0%. Moreover, the viability at 48 h, 1 µM in data set [17] was determined as 70%. Besides, the viability at up to 1 µM in [18] amounted to 70%. Moreover, in data set [21], the viability at up to 10 µM is 0%.

`CCCCCCN1/C(=C/C2=C(N)C(=C\c3ccc4ccccc4[n+]3CCCCCC)/C2=O)Sc2ccccc21`: the IC50 is 650 nM in the data set on HepG2 [1]; 940 nM in the data set with HepG2 [2]; 1390 nM with Caco-2 [3]; 950 nM in the data set on Caco-2 [7]; 0.75 µM in the data set on HepG2 [8]; 690 nM in the data set with Caco-2 [11]. Further, the half-maximal inhibitory concentration (IC50) in the data set on HepG2 [19] was 860 nM; in the data set on Caco-2 [25], 1.24 µM. The viability at 24 h, 1 µM in [26] was 20%. In addition, the half-maximal inhibitory concentration (IC50) at 24 h was 1400 nM in [5] and 1650 nM in data set [9]. Also, the result (in the data set on HepG2 [10]; in the data set with HepG2 [13]; with HepG2 [27]; with HepG2 [20]; in data set [22]; in the data set on Caco-2 [24]) was Active. Besides, the figures for the half-maximal inhibitory concentration (IC50) at 1 h in data set [14] and in data set [15] were 1710 nM and 1.72 µM, respectively. Further, the viability at 24 h, 10 µM in [16] came out at 0%. Further, the viability at 48 h, 1 µM in data set [17] was 20%. In data set [21], the viability at up to 10 µM turned out to be 0%. Further, in the data set with Caco-2 [28], the viability at 1 µM was determined as 0%.

For `CCCCCCN1/C(=C/C2=C([O-])C(=C\c3ccc4ccccc4[n+]3CCCCCC)/C2=O)Sc2ccccc21`, the IC50 was 5060 nM in the data set on HepG2 [1]; 8240 nM with HepG2 [2]; 5380 nM in the data set on Caco-2 [3]; more than 10000 nM in the data set on Caco-2 [7]; 8.53 µM with HepG2 [8]; 5080 nM in the data set on Caco-2 [11]. Moreover, the half-inhibitory concentration (IC50) with HepG2 [19] is 8950 nM; in the data set on Caco-2 [25], more than 10 µM. Further, in the data set on HepG2 [29], the result was inactive. The viability at 5 µM with HepG2 [30] worked out at 50%. Moreover, the Activity result in the data set on Caco-2 [31], in the data set with Caco-2 [33] and in the data set on HepG2 [35] was “Non-Toxic” throughout. Besides, the result (in the data set with Caco-2 [32]; with Caco-2 [34]; with HepG2 [37]; in data set [22]) was Active. In addition, the figures for the half-maximal inhibitory concentration (IC50) at 24 h in data set [5] and in data set [9] were 7840 nM and 5800 nM, respectively. The viability at 24 h, 10 µM in data set [36] was determined as 15%. In addition, the concentration for half-maximal inhibition (IC50) at 1 h in data set [14] was 9100 nM; in data set [15], more than 10 µM.
